# Experimental data published in ChEMBL document CHEMBL1201862, “PubChem BioAssay data set” (2004).
# Active and inactive are the calls of the source.
# Columns and labels:
# Large T antigen = Large T antigen (Simian virus 40, UniProt P03070); type: functional, Betapolyomavirus macacae;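 also: Confirmatory-stage PubChem screen for compounds that inhibit SV40 T antigen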
# [1] = target: FAD-linked sulfhydryl oxidase ALR (Homo sapiens, UniProt P55789); assay: inhibitors of human ALR sulfhydryl oxidase, dose response, biochemical, H2O2 detection, luminescence, cherry-pick (AID 493248)
# Nonstructural protein 1 = Nonstructural protein 1 (Influenza A virus, UniProt Q194T2); type: functional, Influenza A virus (A/California/07/2009(H1N1))
# Genome polyprotein = Genome polyprotein (dengue virus type 2, UniProt P29990); assay: Dengue-2 NS5 methyltransferase inhibitors, primary screen, biochemical, confirmation dose response (AID 588689); type: functional
# cells [2] = type: functional, cell-based
# cells [3] = type: functional, cell-based; remark: listed apart in the source
# [4] = target: T1, High affinity choline transporter 1 (Homo sapiens, UniProt Q9GZV3); assay: CHT inhibitors, dose response, cell-based, 5-point CRC, membrane potential dye (AID 504840); type: functional
# T1 sequence (Q9GZV3 whole entry): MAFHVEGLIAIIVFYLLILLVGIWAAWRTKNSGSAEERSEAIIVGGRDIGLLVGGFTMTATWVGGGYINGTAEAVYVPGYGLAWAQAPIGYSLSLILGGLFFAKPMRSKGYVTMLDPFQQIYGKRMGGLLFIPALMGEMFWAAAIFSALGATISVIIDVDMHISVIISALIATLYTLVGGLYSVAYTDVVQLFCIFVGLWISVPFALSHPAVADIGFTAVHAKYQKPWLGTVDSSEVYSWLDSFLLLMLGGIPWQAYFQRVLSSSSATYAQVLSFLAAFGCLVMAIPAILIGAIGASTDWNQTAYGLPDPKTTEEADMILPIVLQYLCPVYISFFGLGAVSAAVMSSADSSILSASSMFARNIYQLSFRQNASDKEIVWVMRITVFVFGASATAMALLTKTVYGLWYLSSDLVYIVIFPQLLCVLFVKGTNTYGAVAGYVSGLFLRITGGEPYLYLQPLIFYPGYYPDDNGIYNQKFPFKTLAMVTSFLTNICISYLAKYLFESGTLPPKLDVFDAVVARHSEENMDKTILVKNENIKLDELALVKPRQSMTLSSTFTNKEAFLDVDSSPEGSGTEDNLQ
# [5] = target: T2, Rac GTPase-activating protein 1 (Homo sapiens, UniProt Q9H0H5); assay: MgcRacGAP GTPase-activating activity inhibitors, confirmation, biochemical, ADP Hunter fluorescence, primary and confirmatory (AID 624330); type: functional
# T2 sequence (Q9H0H5 whole entry): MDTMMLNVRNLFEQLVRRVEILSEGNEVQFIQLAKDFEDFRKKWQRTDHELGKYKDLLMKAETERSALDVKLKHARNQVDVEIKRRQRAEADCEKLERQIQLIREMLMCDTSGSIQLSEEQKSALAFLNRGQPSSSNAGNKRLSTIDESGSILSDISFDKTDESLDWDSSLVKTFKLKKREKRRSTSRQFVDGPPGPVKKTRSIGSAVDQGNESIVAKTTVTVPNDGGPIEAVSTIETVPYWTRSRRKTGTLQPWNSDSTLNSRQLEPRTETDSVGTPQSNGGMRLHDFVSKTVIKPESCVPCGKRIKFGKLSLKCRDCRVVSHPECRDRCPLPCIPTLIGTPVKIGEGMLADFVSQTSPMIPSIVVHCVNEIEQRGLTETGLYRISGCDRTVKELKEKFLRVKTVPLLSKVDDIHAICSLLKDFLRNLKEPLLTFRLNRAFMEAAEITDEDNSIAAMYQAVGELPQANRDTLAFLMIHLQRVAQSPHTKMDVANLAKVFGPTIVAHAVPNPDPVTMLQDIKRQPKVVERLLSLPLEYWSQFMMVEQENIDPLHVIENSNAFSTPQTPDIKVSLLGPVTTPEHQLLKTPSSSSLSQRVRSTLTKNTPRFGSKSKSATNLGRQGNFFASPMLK
# [6] = target: Luciferin 4-monooxygenase (Photinus pyralis, UniProt P08659); assay: firefly luciferase enzyme inhibitors, dose response, biochemical, luminescence (AID 1891)
# [7] = Luminescence Cell-Based Dose Confirmation HTS to Identify Inhibitors of Platelet Dense Granule Release. [Related pubchem assays: 1663 (Primary HTS), 1678 (Summary of Project)]; type: functional
# [8] = target: T3, Corticotropin-releasing factor receptor 2/Corticotropin-releasing factor-binding protein (Homo sapiens, UniProt P24387+Q13324); assay: Dose Response confirmation of uHTS hits for small molecule antagonists of the CRF-binding protein and CRF-R2 receptor complex.; type: functional; settings: read-out: IC50_Mean
# T3 sequence (Q13324 whole entry): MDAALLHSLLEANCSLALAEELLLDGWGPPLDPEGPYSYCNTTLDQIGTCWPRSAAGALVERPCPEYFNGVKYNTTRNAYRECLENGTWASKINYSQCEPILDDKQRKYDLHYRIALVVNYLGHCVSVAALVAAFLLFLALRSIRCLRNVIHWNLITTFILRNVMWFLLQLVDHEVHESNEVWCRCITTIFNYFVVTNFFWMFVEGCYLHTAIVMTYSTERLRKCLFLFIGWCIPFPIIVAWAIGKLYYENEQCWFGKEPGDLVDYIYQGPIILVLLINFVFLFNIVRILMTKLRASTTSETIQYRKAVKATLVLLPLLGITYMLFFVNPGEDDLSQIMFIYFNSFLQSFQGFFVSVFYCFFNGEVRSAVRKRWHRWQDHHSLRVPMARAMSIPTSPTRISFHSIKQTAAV
# T3 sequence (P24387 whole entry): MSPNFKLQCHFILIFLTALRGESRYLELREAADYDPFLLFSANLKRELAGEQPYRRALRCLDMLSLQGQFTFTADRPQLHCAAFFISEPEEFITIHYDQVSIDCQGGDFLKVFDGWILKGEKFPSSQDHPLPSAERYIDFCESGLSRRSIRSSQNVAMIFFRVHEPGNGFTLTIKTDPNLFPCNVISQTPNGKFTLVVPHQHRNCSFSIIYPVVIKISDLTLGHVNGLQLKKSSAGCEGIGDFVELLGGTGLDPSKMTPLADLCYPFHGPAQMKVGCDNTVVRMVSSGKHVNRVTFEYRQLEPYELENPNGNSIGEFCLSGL
# [9] = target: T3, Corticotropin-releasing factor receptor 2/Corticotropin-releasing factor-binding protein; assay: activators of CRF receptor 2 with binding protein – uHTS hits, confirmation (AID 602473); type: functional; settings: read-out: EC50_Mean
# [10] = Luminescence Cell-Based Dose Confirmation HTS to Identify Activators of 5'UTR Stem-Loop Driven Alpha-Synuclein mRNA Translation in H4 Neuroglioblastoma Cells. [Related pubchem assays: 1829 (Project Summary), 1814 (Primary HTS)]; type: functional
# [11] = Luminescence Cell-Based Dose Response HTS to Identify Activators of Luciferase Translation or Activity in H4 […] Cells. [Related pubchem assays: 1829 (Project Summary), 1814 (Primary HTS)]; type: functional
# H4 = assay: Luminescence Cell-Based Dose Response HTS to Identify Activators of 5'UTR Stem-Loop Driven Prion Protein mRNA Translation in H4 Neuroglioblastoma Cells. [Related pubchem assays: 1829 (Project Summary), 1814 (Primary HTS)]; type: functional; settings: Homo sapiens
# Protein skinhead-1 = target: T4, Protein skinhead-1 (Caenorhabditis elegans, UniProt P34707); type: functional
# T4 sequence (P34707 whole entry): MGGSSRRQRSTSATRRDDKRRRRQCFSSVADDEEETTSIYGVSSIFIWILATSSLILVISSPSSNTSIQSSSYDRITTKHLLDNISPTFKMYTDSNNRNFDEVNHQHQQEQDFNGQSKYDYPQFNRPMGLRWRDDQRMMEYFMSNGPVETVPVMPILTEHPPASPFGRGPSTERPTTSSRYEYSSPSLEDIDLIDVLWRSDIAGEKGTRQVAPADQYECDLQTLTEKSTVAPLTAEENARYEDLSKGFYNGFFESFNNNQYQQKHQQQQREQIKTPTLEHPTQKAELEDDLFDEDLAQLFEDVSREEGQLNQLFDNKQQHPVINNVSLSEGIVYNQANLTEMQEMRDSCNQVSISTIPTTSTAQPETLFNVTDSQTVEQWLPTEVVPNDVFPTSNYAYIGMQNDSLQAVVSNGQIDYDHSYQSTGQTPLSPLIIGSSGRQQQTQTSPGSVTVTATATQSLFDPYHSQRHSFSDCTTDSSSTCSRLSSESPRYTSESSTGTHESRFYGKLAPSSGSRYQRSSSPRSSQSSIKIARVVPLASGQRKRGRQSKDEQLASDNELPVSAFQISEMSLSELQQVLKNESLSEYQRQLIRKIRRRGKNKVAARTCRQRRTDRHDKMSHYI
# [12] = HEp-2 cell cytotoxicity, dose response, cytotoxicity control for RSV inhibitor project, HTS (AID 2410); type: functional; settings: human respiratory syncytial virus
# H9c2 = assay: cells; type: functional, cell-based; settings: Rattus norvegicus, H9c2, Myocardium;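 also: confirmatory concentration-response retest of ultra-high-throughput screening hits for modulation of myocardial damage; cell death induced by hydrogen peroxide oxidative stress; compound pretreatment for 60 min then peroxide exposure for 2 h; potency is for protecting the cells against peroxide damage rather than for killing them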
# INS1 = assay: beta cell apoptosis inhibitors, cytokine rescue, dose response, luminescence, retest (AID 449756); type: functional, cell-based; settings: Rattus norvegicus;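 also: cell death triggered by IL-1 beta plus TNF-alpha plus IFN-gamma mixture; protective hits raise ATP signal compared with cytokine alone wells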
# [13] = target: T5, Ubiquitin-conjugating enzyme E2 N (Homo sapiens, UniProt P61088); type: functional;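 also: Dose-response confirmation in a TR-FRET assay detecting UBC13-driven polyubiquitin chain formation, inhibition measured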
# T5 sequence (P61088 whole entry): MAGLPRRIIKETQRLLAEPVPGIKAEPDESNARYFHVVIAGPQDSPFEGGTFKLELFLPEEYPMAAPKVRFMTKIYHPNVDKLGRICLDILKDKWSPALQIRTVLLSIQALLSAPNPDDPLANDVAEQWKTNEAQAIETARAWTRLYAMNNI
# Vero = assay: cells; type: functional; settings: Chlorocebus sabaeus
# [14] = inhibitors of clade B AD8 Env fusion, dose response, cell-based, cherry-pick (AID 652062); type: functional;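 also: luciferase signal from cell-cell fusion driven by HIV-1 clade B AD8 Env; potency is for inhibitors of fusion seen as a drop in luminescence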
# Sequence of Nonstructural protein 1 (Q194T2 whole entry): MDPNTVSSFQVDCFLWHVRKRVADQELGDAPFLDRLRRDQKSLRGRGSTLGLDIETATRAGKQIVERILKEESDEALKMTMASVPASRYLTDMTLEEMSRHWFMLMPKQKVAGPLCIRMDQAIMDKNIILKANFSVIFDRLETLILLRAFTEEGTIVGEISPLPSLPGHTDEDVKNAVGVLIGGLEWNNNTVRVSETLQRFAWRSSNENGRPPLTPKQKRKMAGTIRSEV
# Sequence of Large T antigen (P03070 whole entry): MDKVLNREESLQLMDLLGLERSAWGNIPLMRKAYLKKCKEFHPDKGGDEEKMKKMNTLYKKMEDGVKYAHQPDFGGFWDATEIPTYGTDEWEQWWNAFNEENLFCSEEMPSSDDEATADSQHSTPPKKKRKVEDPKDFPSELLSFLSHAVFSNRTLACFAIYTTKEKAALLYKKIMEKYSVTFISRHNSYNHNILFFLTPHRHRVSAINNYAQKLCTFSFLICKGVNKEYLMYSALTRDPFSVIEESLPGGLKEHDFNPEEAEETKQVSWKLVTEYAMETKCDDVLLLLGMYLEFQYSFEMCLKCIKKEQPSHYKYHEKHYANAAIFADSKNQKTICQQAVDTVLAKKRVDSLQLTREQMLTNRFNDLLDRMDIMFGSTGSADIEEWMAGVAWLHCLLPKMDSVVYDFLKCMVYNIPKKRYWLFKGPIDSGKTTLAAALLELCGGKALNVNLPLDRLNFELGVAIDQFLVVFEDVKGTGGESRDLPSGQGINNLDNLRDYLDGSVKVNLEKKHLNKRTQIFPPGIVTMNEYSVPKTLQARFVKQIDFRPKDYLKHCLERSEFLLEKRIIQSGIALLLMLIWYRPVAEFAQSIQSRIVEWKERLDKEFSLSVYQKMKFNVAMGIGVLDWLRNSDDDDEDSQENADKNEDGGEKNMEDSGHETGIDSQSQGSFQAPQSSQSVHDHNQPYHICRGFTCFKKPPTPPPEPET
# Sequence of Genome polyprotein (P29990 2492-3391 limits assumed): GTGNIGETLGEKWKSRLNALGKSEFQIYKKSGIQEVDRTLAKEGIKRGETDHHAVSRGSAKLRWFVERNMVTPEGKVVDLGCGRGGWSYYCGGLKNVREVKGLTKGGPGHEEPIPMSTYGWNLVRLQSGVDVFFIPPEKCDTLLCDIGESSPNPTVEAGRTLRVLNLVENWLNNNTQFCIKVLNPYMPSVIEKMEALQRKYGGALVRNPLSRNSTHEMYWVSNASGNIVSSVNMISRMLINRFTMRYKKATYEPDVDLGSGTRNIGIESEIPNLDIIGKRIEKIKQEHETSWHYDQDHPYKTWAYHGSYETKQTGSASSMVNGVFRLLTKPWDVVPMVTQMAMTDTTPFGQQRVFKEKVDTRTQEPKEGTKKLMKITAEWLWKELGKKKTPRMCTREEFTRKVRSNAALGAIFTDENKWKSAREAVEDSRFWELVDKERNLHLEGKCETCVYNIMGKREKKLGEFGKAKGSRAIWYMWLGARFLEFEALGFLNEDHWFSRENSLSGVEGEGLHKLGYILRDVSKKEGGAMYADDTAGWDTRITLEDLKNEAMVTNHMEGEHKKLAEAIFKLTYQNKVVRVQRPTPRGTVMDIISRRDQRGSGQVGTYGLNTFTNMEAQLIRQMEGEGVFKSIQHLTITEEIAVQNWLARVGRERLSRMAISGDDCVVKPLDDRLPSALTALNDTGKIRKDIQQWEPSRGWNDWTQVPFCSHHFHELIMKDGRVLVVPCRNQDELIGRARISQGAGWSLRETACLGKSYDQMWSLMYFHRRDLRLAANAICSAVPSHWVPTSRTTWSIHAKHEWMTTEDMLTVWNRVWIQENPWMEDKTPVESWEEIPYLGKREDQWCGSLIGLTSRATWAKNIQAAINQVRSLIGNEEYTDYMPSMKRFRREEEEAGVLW
# Sequence of Luciferin 4-monooxygenase (P08659 whole entry): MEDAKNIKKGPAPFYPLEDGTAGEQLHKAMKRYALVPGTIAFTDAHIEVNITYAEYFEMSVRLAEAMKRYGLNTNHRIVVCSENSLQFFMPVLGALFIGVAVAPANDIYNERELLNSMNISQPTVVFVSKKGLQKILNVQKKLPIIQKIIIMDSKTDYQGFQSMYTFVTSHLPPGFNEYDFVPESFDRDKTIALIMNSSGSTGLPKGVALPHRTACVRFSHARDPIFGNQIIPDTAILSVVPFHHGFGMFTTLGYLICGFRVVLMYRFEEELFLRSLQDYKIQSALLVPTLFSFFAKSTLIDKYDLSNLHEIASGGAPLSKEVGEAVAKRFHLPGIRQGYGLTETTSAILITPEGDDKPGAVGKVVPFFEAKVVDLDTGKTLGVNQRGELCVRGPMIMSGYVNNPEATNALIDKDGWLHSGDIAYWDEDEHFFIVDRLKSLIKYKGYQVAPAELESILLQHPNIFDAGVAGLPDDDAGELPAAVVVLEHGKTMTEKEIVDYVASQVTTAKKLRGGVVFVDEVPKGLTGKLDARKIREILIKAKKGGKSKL
# Sequence of FAD-linked sulfhydryl oxidase ALR (P55789 whole entry): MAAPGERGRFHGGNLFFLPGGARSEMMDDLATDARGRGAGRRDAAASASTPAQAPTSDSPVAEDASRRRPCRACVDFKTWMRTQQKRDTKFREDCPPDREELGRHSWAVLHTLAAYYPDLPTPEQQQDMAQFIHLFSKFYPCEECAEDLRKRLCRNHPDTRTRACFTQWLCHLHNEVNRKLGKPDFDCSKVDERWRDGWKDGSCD
smiles,measurement,setting,value
CCn1cnc2cc(NCc3ccc(N(C)C)cc3)ccc21,IC50,Large T antigen,15.8 µM (active)
same,AC50,[1],5.86 µM (active)
CN(C)c1ccc(NC(=O)CN2CCC(O)(c3ccccc3)CC2)cc1,IC50,Large T antigen,7.29 µM (active)
COC(=O)c1ccccc1NC(=O)COC(=O)c1ccccc1N=Nc1ccc(N(C)C)cc1,IC50,Nonstructural protein 1,21.4 µM (active)
O=C1ON=C(c2ccccc2)/C1=C/c1ccc(OS(=O)(=O)c2ccccc2)cc1,IC50,Large T antigen,67.3 µM (active)
same,IC50,Genome polyprotein,32.3 µM (active)
Fc1ccccc1N=C(S)Nc1ccc(Br)cc1,EC50,cells [2],> 350 µM (not active)
same,EC50,cells [3],169 µM (active)
NC(=O)C1CCCN(Cc2c(C(=O)N3CCc4ccccc4C3)nc3ccc(Cl)cn23)C1 (stereo not given),EC50,cells [2],> 350 µM (not active)
same,EC50,cells [3],> 350 µM (not active)
COC(=O)c1ccc(-n2cncn2)c([N+](=O)[O-])c1,EC50,cells [2],> 350 µM (not active)
same,EC50,cells [3],> 350 µM (not active)
CN1Cc2sc(N)c(C#N)c2CC1(C)C,IC50,[4],22.9 µM (active)
CCN(CC)CCN1C(=O)C(O)=C(C(=O)c2ccc(C)cc2)C1c1cccnc1 (stereo not given),IC50,Large T antigen,18.9 µM (active)
Cc1ccccc1N1C(=O)NC(=O)/C(=C\c2cnn(-c3ccccc3)c2)C1=O,IC50,Large T antigen,44.9 µM (active)
same,IC50,Genome polyprotein,> 100 µM (active)
same,IC50,[5],118 µM (active)
COc1ccc2cc(C(=O)N3CCN(Cc4ccc5c(c4)OCO5)CC3)[nH]c2c1,EC50,[6],> 112 µM (not active)
same,EC50,[7],> 112 µM (not active)
same,IC50,[8],> 47.1 µM (inactive)
same,EC50,[9],> 53 µM (inactive)
O=[N+]([O-])c1ccccc1NCCOc1ccccc1,EC50,[10],23.6 µM (active)
same,EC50,[11],24 µM (active)
same,EC50,H4,5.5 µM (active)
same,IC50,Nonstructural protein 1,> 100 µM (active)
same,IC50,Protein skinhead-1,96.3 µM (inactive)
CCn1ncc(CN2CCCC(C(=O)Nc3cccc(-c4cc5ccccc5[nH]4)c3)C2)c1C (stereo not given),CC50,[12],16.1 µM (active)
same,IC50,Nonstructural protein 1,> 100 µM (active)
CCOC(=O)N1CCC(N2C(=O)c3ccccc3C2Nc2cc(OC)c(OC)c(OC)c2)CC1 (stereo not given),EC50,[6],> 112 µM (not active)
same,EC50,[7],94.3 µM (active)
same,IC50,H9c2,> 79 µM (inactive)
Cc1ccc(C2=NOC(=O)/C2=C\c2ccccc2)cc1,EC50,cells [2],> 350 µM (not active)
same,EC50,cells [3],> 350 µM (not active)
COc1ccc(C(=O)NC(Cc2ccc(OC(=O)c3ccc(OC)cc3)cc2)C(=O)O)cc1 (stereo not given),IC50,[4],9.12 µM (active)
O=C(NCCCn1ccnc1)c1cn(-c2ccccc2)nc1-c1ccc(F)cc1,IC50,[4],11.5 µM (active)
CCN(CC)c1ccc(N=C2C(=O)Nc3ccccc32)cc1,IC50,Nonstructural protein 1,14.3 µM (active)
same,AC50,[1],2.06 µM (active)
same,AC50,INS1,20.2 µM (active)
same,IC50,Genome polyprotein,> 100 µM (active)
CC(C)(C)C1=CC(=Nc2ccccc2N)C=C(C(C)(C)C)C1=O,IC50,Nonstructural protein 1,10.9 µM (active)
CC1CC(C)(C)CC2(C1)NC(=O)N(CC(=O)Nc1ccc3[nH]c(O)nc3c1)C2=O (stereo not given),IC50,[13],> 20 µM (inactive)
O=C(CCNC(=O)Cn1ccc2ccccc2c1=O)NCCN1CCN(c2ccccc2F)CC1,IC50,[13],> 20 µM (inactive)
CCC[C@@H](CN1CCC[C@H]1CN1C(N)=NC[C@H]1CC(C)C)N1C[C@@H]([C@H](C)CC)N(CCCC2CCCC2)C1=N,IC50,[13],> 20 µM (inactive)
CCOC(=O)c1cnc(SCc2ccc(Cl)c(Cl)c2)nc1N1CC1,CC50,Vero,> 25 µM (active)
CCCNC(=O)C[C@H]1C[C@H]2c3cc(NC(=O)CN(C)C)ccc3O[C@H]2[C@@H](CO)O1,AC50,[14],38.6 µM (active)
